Assay results: patent US20220380347A1, “INHIBITORS OF CYSTEINE PROTEASES AND METHODS OF USE THEREOF” (Pardes Biosciences, Inc., priority 2020, published 2022)
Like-named read-outs stand apart in the source and are kept apart here.

What was measured:
[1] = target: 229E Mpro (Human coronavirus 229E, UniProt P0C6X1); experiment: 229E Mpro enzymatic assay (standard methods, SARS-CoV2 Mpro assay given as exemplary); format: biochemical, human coronavirus (HCov) 229E
In short: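 Run by standard methods, with the SARS-CoV-2 Mpro protocol given as the model: E. coli-expressed C-His6 protease at 25 nM and substrate at 25 μM (Km 13.5 μM). Buffer pH 7.3 with 5 mM TCEP and 0.1% BSA; % inhibition versus controls fitted to variable-slope log(inhibitor)-response for IC50.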

[2] = test system: HCov OC43; experiment: HCoV OC43 cytopathic effect (CPE) assay, CellTiter Glo; format: cell-based, human coronavirus (HCov) OC43
[3] = target: COVID-19 (nCoV-2019, SARS-CoV2) Mpro (Severe acute respiratory syndrome coronavirus 2, UniProt P0DTD1); experiment: COVID-19 (nCoV-2019, SARS-CoV2) Mpro enzymatic assay; format: biochemical; conditions: 25 nM Mpro, 25 μM substrate; read-out: COVID-19 Mpro IC50
[4] = Betacoronavirus 1, OC43, read-out: OC43 IC50 (uM) MEDIAN, median
[5] = read-out: OC43 IC50 (uM) MEDIAN, median

Sequence of 229E Mpro (P0C6X1 2966-3267): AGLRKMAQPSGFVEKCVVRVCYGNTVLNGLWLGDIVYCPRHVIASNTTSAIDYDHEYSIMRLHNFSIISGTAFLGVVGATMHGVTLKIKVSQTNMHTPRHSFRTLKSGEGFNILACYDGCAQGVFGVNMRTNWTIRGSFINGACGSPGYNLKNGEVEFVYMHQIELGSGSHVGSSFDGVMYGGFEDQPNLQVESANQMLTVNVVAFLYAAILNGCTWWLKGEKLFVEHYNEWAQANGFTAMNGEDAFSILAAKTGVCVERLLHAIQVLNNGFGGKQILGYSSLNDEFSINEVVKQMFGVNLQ

Compound	EC50 ([1]; 229E Mpro EC50) [µM]	IC50 ([2]; read-out: OC43 IC50 (uM) MEDIAN, median, listed as 293 Isomer 2) [µM]	IC50 [3] [µM]	IC50 [2, 4] [µM]	EC50 ([1]; read-out: 229E Mpro EC50) [µM]	IC50 [2, 5] [µM]	IC50 ([2]; read-out: OC43 IC50 (uM) MEDIAN, median, listed as 961 Isomer 1) [µM]	IC50 ([2]; read-out: OC43 IC50 (uM) MEDIAN, median, listed as 1161 Isomer 4) [µM]
CO[C@H]1C[C@H](C(=O)N(c2ccc(C(C)(C)C)cc2)C(C(=O)NC2CCCCC2)c2cccnc2)N(C#N)C1 (single isomer, unassigned) [Compound 293 Isomer 2]	2 to 10	10 to 30	10 to 30	–	–	–	–	–
N#CN1CC(=O)NCC1C(=O)N(c1ccc(S(F)(F)(F)(F)F)cc1)C(C(=O)NC1CCC(F)(F)CC1)c1cncc(F)c1 (single isomer, unassigned) [Compound 1160 Isomer 1, 1-cyano-N-[2-[(4,4-difluorocyclohexyl)amino]-1-(5-fluoro-3-pyridyl)-2-oxo-ethyl]-5-oxo-N-[4-(pentafluoro-λ6-sulfanyl)phenyl]piperazine-2-carboxamide]	< 2	–	< 2	< 2	–	–	–	–
CO[C@@H]1C[C@H](C(=O)N(c2ccc(S(F)(F)(F)(F)F)cc2)C(C(=O)N2CCCC3(COC3)C2)c2cccnc2)N(C#N)C1 (single isomer, unassigned) [1175 Isomer 2]	–	–	10 to 30	–	< 2	2 to 10	–	–
CO[C@@H]1C[C@H](C(=O)N(c2ccc(S(F)(F)(F)(F)F)cc2)C(C(=O)NCCc2cccc(F)c2)c2cccnc2)N(C#N)C1 (single isomer, unassigned) [1197 Isomer 2]	–	–	2 to 10	–	< 2	2 to 10	–	–
Cc1nc[nH]c1C(C(=O)NC1CCC(F)(F)CC1)N(C(=O)[C@H]1C[C@@](C)(O)CN1C#N)c1ccc(S(F)(F)(F)(F)F)cc1 (single isomer, unassigned) [1324 Isomer 2]	–	–	10 to 30	–	10 to 30	2 to 10	–	–
CC(C)(C)c1ccc(NC2(C#N)CCCc3ccncc32)cc1 (stereo not drawn) [Compound 690a]	> 30	–	> 30	> 30	–	–	–	–
CC(C)(C)c1ccc(N(C(=O)[C@H]2CCCN2C#N)C(C(=O)NC2CCCCC2)c2cncc(F)c2)cc1 (single isomer, unassigned) [475 Isomer 1]	< 2	–	< 2	–	–	2 to 10	–	–
N#CN1C[C@H]2C[C@H]2[C@@H]1C(=O)N(c1ccc(S(F)(F)(F)(F)F)cc1)C(C(=O)NC1CCC(F)(F)CC1)c1cncc(F)c1 (stereo partly drawn) [Compound 1095b, (1R,2R,5S)-3-cyano-N-[2-[(4,4-difluorocyclohexyl)amino]-1-(5-fluoro-3-pyridyl)-2-oxo-ethyl]-N-[4-(pentafluoro-λ^6-sulfanyl)phenyl]-3-azabicyclo[3.1.0]hexane-2-carboxamide]	< 2	–	< 2	< 2	–	–	–	–
[2H]C(C(=O)NC1CCOCC1)(c1cnccn1)N(C(=O)[C@H]1C[C@@](C)(O)CN1C#N)c1ccc(S(F)(F)(F)(F)F)cc1 (stereo partly drawn) [Compound 1305, (2R,4R)-1-cyano-N-[1-deuterio-2-oxo-1-pyrazin-2-yl-2-(tetrahydropyran-4-ylamino)ethyl]-4-hydroxy-4-methyl-N-[4-(pentafluoro-λ^6-sulfanyl)phenyl]pyrrolidine-2-carboxamide]	> 30	–	> 30	> 30	–	–	–	–
CO[C@@H]1C[C@H](C(=O)N(c2ccc(C(C)(C)C)cc2)C(C)(C(=O)NC2CCC(F)(F)CC2)c2cccnc2)N(C#N)C1 (single isomer, unassigned) [1232 Isomer 2]	< 2	–	< 2	–	–	< 2	–	–
CO[C@@H]1C[C@H](C(=O)N(c2ccc(S(F)(F)(F)(F)F)cc2)C(C(=O)NC2C[C@@H](C)O[C@@H](C)C2)c2cccnc2)N(C#N)C1 (single isomer, unassigned) [Compound 1185]	< 2	–	< 2	< 2	–	–	–	–
CN(C)CCCNC(=O)C(c1cccnc1)N(C(=O)[C@H]1CCCN1C#N)c1ccc(C(C)(C)C)cc1 (stereo partly drawn) [Compound 455]	< 2	–	2 to 10	10 to 30	–	–	–	–
CC(C)(C)c1ccc(N(C(=O)[C@H]2CCCN2C#N)C(C(=O)N2CCNC(=O)C2)c2cccnc2)cc1 (single isomer, unassigned) [Compound 961 Isomer 1]	< 2	–	2 to 10	–	–	–	2 to 10	–
CO[C@@H]1C[C@H](C(=O)N(c2ccc(S(F)(F)(F)(F)F)cc2)C(C(=O)NC(C)C2CCCCN2C(=O)OC(C)(C)C)c2cccnc2)N(C#N)C1 (single isomer, unassigned) [1303 Isomer 2.2]	< 2	–	< 2	–	–	< 2	–	–
CC1(C)CN(C#N)[C@@H](C(=O)N(c2ccc(S(F)(F)(F)(F)F)cc2)C(C(=O)NC2CCC(F)(F)CC2)c2cncc(F)c2)CO1 (single isomer, unassigned) [1086b Isomer 2]	–	–	2 to 10	–	< 2	2 to 10	–	–
CC(C)(C#N)C(=O)N(c1ccc(S(F)(F)(F)(F)F)cc1)C(C(=O)NC1CCC(F)(F)CC1)c1cncc(F)c1 (single isomer, unassigned) [Compound 1316 Isomer 2, 2-Cyano-N-[2-[(4,4-difluorocyclohexyl)amino]-1-(5-fluoro-3-pyridyl)-2-oxo-ethyl]-2-methyl-N-[4-(pentafluoro-λ6-sulfanyl)phenyl]propanamide]	> 30	–	> 30	–	–	> 30	–	–
CC1(C)CN(C#N)[C@@H](C(=O)N(c2ccc(C(C)(C)C)cc2)C(C(=O)NC2CCOCC2)c2cccnc2)CO1 (single isomer, unassigned) [1141 Isomer 3]	10 to 30	–	> 30	–	–	> 30	–	–
CC(C)(C)c1ccc(N(C(=O)[C@H]2CCCN2C#N)C(C(=O)NCCN2CCOCC2)c2cccnc2)cc1 (single isomer, unassigned) [391 Isomer 2]	2 to 10	–	10 to 30	–	–	10 to 30	–	–
CO[C@@H]1C[C@H](C(=O)N(c2ccc(S(F)(F)(F)(F)F)cc2)C(C(=O)NCC2(C)CCCN(C(=O)OC(C)(C)C)C2)c2cccnc2)N(C#N)C1 (single isomer, unassigned) [1290 Isomer 2]	2 to 10	–	10 to 30	–	–	2 to 10	–	–
CN1CC(C(=O)N(c2ccc(S(F)(F)(F)(F)F)cc2)C(C(=O)NC2CCC(F)(F)CC2)c2cncc(F)c2)N(C#N)CC1=O (single isomer, unassigned) [Compound 1161 Isomer 4, 1-cyano-N-[2-[(4,4-difluorocyclohexyl)amino]-1-(5-fluoro-3-pyridyl)-2-oxo-ethyl]-4-methyl-5-oxo-N-[4-(pentafluoro-λ6-sulfanyl)phenyl]piperazine-2-carboxamide]	2 to 10	–	2 to 10	–	–	–	–	2 to 10
N#CN1CC(F)(F)C[C@@H]1C(=O)N(c1ccc(S(F)(F)(F)(F)F)cc1)C(C(=O)NC1CCC(F)(F)CC1)c1cccnc1 (single isomer, unassigned) [1087 Isomer 1]	< 2	–	< 2	–	–	< 2	–	–
N#CN1C[C@H](O)C[C@@H]1C(=O)N(c1ccc(C(F)(C(F)(F)F)C(F)(F)F)cc1)C(C(=O)NC1CCCCC1)c1cccnc1 (single isomer, unassigned) [Compound 779 Isomer 2]	2 to 10	–	2 to 10	–	–	2 to 10	–	–
CO[C@@H]1C[C@H](C(=O)N(c2ccc(S(F)(F)(F)(F)F)cc2)C(C(=O)NC2CCC(F)(F)CC2)c2cnccc2C(F)(F)F)N(C#N)C1 (single isomer, unassigned) [1202 Isomer 1]	< 2	–	< 2	< 2	–	–	–	–
C[C@H](NC(=O)C(c1cnccn1)N(C(=O)c1ccco1)c1ccc(-c2ccccc2)cc1)c1ccccc1 (single isomer, unassigned) [1355 Isomer 2]	–	–	< 2	–	2 to 10	> 30	–	–
CO[C@@H]1C[C@H](C(=O)N(c2ccc(S(F)(F)(F)(F)F)cc2)C(C(=O)NC2CCC(F)(F)CC2)c2nncn2C(C)C)N(C#N)C1 (stereo partly drawn) [Compound 1307, (2R,4R)-1-cyano-N-[2-[(4,4-difluorocyclohexyl)amino]-1-(4-isopropyl-1,2,4-triazol-3-yl)-2-oxo-ethyl]-4-methoxy-N-[4-(pentafluoro-λ6-sulfanyl)phenyl]pyrrolidine-2-carboxamide]	> 30	–	> 30	> 30	–	–	–	–
CO[C@@H]1C[C@H](C(=O)N(c2ccc(S(F)(F)(F)(F)F)cc2)C(C(=O)NCC(C)(C)OC)c2cccnc2)N(C#N)C1 (single isomer, unassigned) [1194 Isomer 2]	–	–	10 to 30	–	< 2	2 to 10	–	–
CC(C)(C)c1ccc(N(C(=O)[C@H]2CCCN2C#N)C(C(=O)NCC2COC2)c2cccnc2)cc1 (single isomer, unassigned) [Compound 419 Isomer 2]	–	–	2 to 10	–	< 2	2 to 10	–	–
CC(C)(C)c1ccc(N(C(=O)[C@H]2C[C@@](C)(O)CN2C#N)C(C(=O)NC2CCOCC2)c2cccnc2)cc1 (single isomer, unassigned) [1142 Isomer 1]	< 2	–	< 2	–	–	< 2	–	–
CN(C)C1CN(C(=O)C(c2cccnc2)N(C(=O)[C@H]2CCCN2C#N)c2ccc(C(C)(C)C)cc2)C1 (stereo partly drawn) [Compound 975, (2R)—N-(4-(tert-butyl)phenyl)-1-cyano-N-(2-(3-(dimethylamino)azetidin-1-yl)-2-oxo-1-(pyridin-3-yl)ethyl)pyrrolidine-2-carboxamide]	2 to 10	–	10 to 30	10 to 30	–	–	–	–
N#CN1C[C@@H]2C[C@@H]2[C@@H]1C(=O)N(c1ccc(S(F)(F)(F)(F)F)cc1)C(C(=O)NC1CCC(F)(F)CC1)c1cncc(F)c1 (single isomer, unassigned) [1096 Isomer 2]	–	–	< 2	–	< 2	< 2	–	–
